Assays:
[1] = Stability of Abamectin in water at various pH-values and temperatures (dark, HPLC); assay type: physicochemical
Method: The stability of Abamectin in water at various pH-values and temperatures was determined. 194.4 mg of abamectin was dissolved in 10 ml methanol and 1 ml of the solution transferred to 100 ml of de-mineralised water and a part of this was transferred to a buffer solution. The sample was kept in the dark and the solution analysed using a HPLC.

[2] = Stability of Abamectin in water exposed to light at various pH-values (HPLC); assay type: physicochemical
Method: The stability of Abamectin in water exposed to light at various pH-values was determined. 194.4 mg of abamectin was dissolved in 10 ml methanol and 1 ml of the solution transferred to 100 ml of demineralised water and a part of this transferred to a buffer solution. […]

With Abamectin the Abamectin concentration ([1]; pH 4.0, 25 °C, 7 days) was 3.130 ppm, the Abamectin concentration ([1]; pH 4.0, 25 °C, 14 days) was 2.782 ppm and the Abamectin concentration ([1]; pH 4.0, 25 °C, 21 days) was 2.566 ppm. It also gave an Abamectin concentration ([1]; pH 4.0, 25 °C, 28 days) of 2.524 ppm, an Abamectin concentration ([1]; pH 4.0, 25 °C, Initial) of 3.495 ppm and an Abamectin concentration ([1]; pH 4.0, 50 °C, 7 days) of 1.054 ppm. The Abamectin concentration ([1]; pH 4.0, 50 °C, 14 days) was 0.383 ppm, the Abamectin concentration ([1]; pH 4.0, 50 °C, 21 days) was 0.123 ppm and the Abamectin concentration ([1]; pH 4.0, 50 °C, 28 days) was 0.0609 ppm. For the same substance, the Abamectin concentration ([1]; pH 4.0, 50 °C, Initial) was 3.495 ppm, the Abamectin concentration ([1]; pH 7.0, 25 °C, 7 days) was 3.188 ppm and the Abamectin concentration ([1]; pH 7.0, 25 °C, 14 days) was 3.040 ppm. The Abamectin concentration ([1]; pH 7.0, 25 °C, 21 days) was 2.829 ppm, the Abamectin concentration ([1]; pH 7.0, 25 °C, 28 days) was 2.676 ppm and the Abamectin concentration ([1]; pH 7.0, 25 °C, Initial) was 3.327 ppm. The Abamectin concentration ([1]; pH 7.0, 50 °C, 7 days) was 2.952 ppm, the Abamectin concentration ([1]; pH 7.0, 50 °C, 14 days) was 2.780 ppm and the Abamectin concentration ([1]; pH 7.0, 50 °C, 21 days) was 2.194 ppm. It also gave an Abamectin concentration ([1]; pH 7.0, 50 °C, 28 days) of 1.949 ppm, an Abamectin concentration ([1]; pH 7.0, 50 °C, Initial) of 3.327 ppm and an Abamectin concentration ([1]; pH 9.0, 25 °C, 7 days) of 3.005 ppm. The Abamectin concentration ([1]; pH 9.0, 25 °C, 14 days) was 2.596 ppm, the Abamectin concentration ([1]; pH 9.0, 25 °C, 21 days) was 2.380 ppm and the Abamectin concentration ([1]; pH 9.0, 25 °C, 28 days) was 2.287 ppm. It also gave an Abamectin concentration ([1]; pH 9.0, 25 °C, Initial) of 3.555 ppm, an Abamectin concentration ([1]; pH 9.0, 50 °C, 7 days) of 1.265 ppm and an Abamectin concentration ([1]; pH 9.0, 50 °C, 14 days) of 0.519 ppm. The Abamectin concentration ([1]; pH 9.0, 50 °C, 21 days) was 0.205 ppm, the Abamectin concentration ([1]; pH 9.0, 50 °C, 28 days) was 0.0628 ppm and the Abamectin concentration ([1]; pH 9.0, 50 °C, Initial) was 3.555 ppm. The Abamectin concentration ([2]; pH 4.0, 25° C., Dark, 7 days) was 3.130 ppm, the Abamectin concentration ([2]; pH 4.0, 25° C., Dark, 14 days) was 2.782 ppm and the Abamectin concentration ([2]; pH 4.0, 25° C., Dark, 21 days) was 2.566 ppm. For the same substance, the Abamectin concentration ([2]; pH 4.0, 25° C., Dark, 28 days) was 2.524 ppm, the Abamectin concentration ([2]; pH 4.0, 25° C., Dark, Initial) was 3.495 ppm and the Abamectin concentration ([2]; pH 4.0, 25° C., Light (5000-6000 lux), 7 days) was 2.923 ppm. For the same substance, the Abamectin concentration ([2]; pH 4.0, 25° C., Light (5000-6000 lux), 14 days) was 2.332 ppm, the Abamectin concentration ([2]; pH 4.0, 25° C., Light (5000-6000 lux), 21 days) was 1.961 ppm and the Abamectin concentration ([2]; pH 4.0, 25° C., Light (5000-6000 lux), 28 days) was 1.666 ppm. The Abamectin concentration ([2]; pH 4.0, 25° C., Light (5000-6000 lux), Initial) was 3.495 ppm, the Abamectin concentration ([2]; pH 7.0, 25° C., Dark, 7 days) was 3.188 ppm and the Abamectin concentration ([2]; pH 7.0, 25° C., Dark, 14 days) was 3.040 ppm. The Abamectin concentration ([2]; pH 7.0, 25° C., Dark, 21 days) was 2.829 ppm, the Abamectin concentration ([2]; pH 7.0, 25° C., Dark, 28 days) was 2.676 ppm and the Abamectin concentration ([2]; pH 7.0, 25° C., Dark, Initial) was 3.327 ppm. It also gave an Abamectin concentration ([2]; pH 7.0, 25° C., Light (5000-6000 lux), 7 days) of 2.941 ppm, an Abamectin concentration ([2]; pH 7.0, 25° C., Light (5000-6000 lux), 14 days) of 2.529 ppm and an Abamectin concentration ([2]; pH 7.0, 25° C., Light (5000-6000 lux), 21 days) of 2.223 ppm. For the same substance, the Abamectin concentration ([2]; pH 7.0, 25° C., Light (5000-6000 lux), 28 days) was 2.034 ppm, the Abamectin concentration ([2]; pH 7.0, 25° C., Light (5000-6000 lux), Initial) was 3.327 ppm and the Abamectin concentration ([2]; pH 9.0, 25° C., Dark, 7 days) was 3.005 ppm. The Abamectin concentration ([2]; pH 9.0, 25° C., Dark, 14 days) was 2.596 ppm, the Abamectin concentration ([2]; pH 9.0, 25° C., Dark, 21 days) was 2.380 ppm and the Abamectin concentration ([2]; pH 9.0, 25° C., Dark, 28 days) was 2.287 ppm. The Abamectin concentration ([2]; pH 9.0, 25° C., Dark, Initial) was 3.555 ppm, the Abamectin concentration ([2]; pH 9.0, 25° C., Light (5000-6000 lux), 7 days) was 3.163 ppm and the Abamectin concentration ([2]; pH 9.0, 25° C., Light (5000-6000 lux), 14 days) was 2.810 ppm. For the same substance, the Abamectin concentration ([2]; pH 9.0, 25° C., Light (5000-6000 lux), 21 days) was 2.360 ppm, the Abamectin concentration ([2]; pH 9.0, 25° C., Light (5000-6000 lux), 28 days) was 2.173 ppm and the Abamectin concentration ([2]; pH 9.0, 25° C., Light (5000-6000 lux), Initial) was 3.555 ppm.

— patent US20080125480A1, “Oil-In-Water Formulation Of Avermectins” (priority 2004, published 2008)
